The text below walks through data of ChEMBL document CHEMBL1153636, “The phosphoramidate ProTide approach greatly enhances the activity of beta-2'-C-methylguanosine against hepatitis C virus” (Bioorg Med Chem Lett, 2009).

Bounds are passed on as bounds.

In data set [1] the test system is Hepatitis C virus. The data set can be described thus: Antiviral activity against HCV assessed as inhibition of viral replicon replication in human Huh5-2 cells. In kind it is functional, organism-based, Hepacivirus hominis. The settings on record: Huh-5-2. In general terms: Replicon systems follow genome replication, usually without infectious particles.
Data set [2] can be described thus: Cytotoxicity against human Huh5-2 cells. In kind it is cell-based, Huh-5-2.
The test system of data set [3] is carboxypeptidase. The experiment in a line: Stability in presence of carboxypeptidase assessed as parent ProTide compound remaining after 10 mins. The data set is classed as ADME. To be noted: read-out: Stability.
In data set [4] the test system is carboxypeptidase. The data set can be described thus: Stability in presence of carboxypeptidase assessed as parent ProTide compound remaining. The data set is classed as ADME.
For data set [5], the system named is carboxypeptidase. The data set can be described thus: Stability in presence of carboxypeptidase assessed as parent ProTide compound remaining after 13 hrs. To be noted: read-out: Stability. The data set is classed as ADME.
Data set [6] relates to Hepatitis C virus. The data set can be described thus: Antiviral activity against HCV by viral replicon assay. The data set is classed as functional, organism-based, Hepacivirus hominis.
The nature of data set [7]: Inhibition of HCV RNA-dependent RNA polymerase. On the set-up: species or system Hepacivirus hominis.

With `C[C@H](NP(=O)(OC[C@H]1O[C@@H](n2cnc3c(N)ncnc32)[C@](C)(O)[C@@H]1O)Oc1cccc2ccccc12)C(=O)OC(C)(C)C` (some centres undefined), the EC50 – broadly, the concentration needed to bring the measured effect to its halfway point – in the data set on Hepatitis C virus [1] stood at 4.18 µM. In addition, the CC50 – broadly, the concentration at which the toxic effect on the cells reaches its halfway point – in data set [2] is > 50 µM.
In the case of `CCOC(=O)[C@H](C)NP(=O)(OC[C@H]1O[C@@H](n2cnc3c(N)ncnc32)[C@](C)(O)[C@@H]1O)Oc1cccc2ccccc12` (some centres undefined), the EC50 in the data set with Hepatitis C virus [1] worked out at 0.24 µM. Besides, the CC50 in data set [2] is > 50 µM.
In the case of `C[C@H](NP(=O)(OC[C@H]1O[C@@H](n2cnc3c(=O)[nH]c(N)nc32)[C@](C)(O)[C@@H]1O)Oc1cccc2ccccc12)C(=O)OCc1ccccc1` (some centres undefined), in the data set on Hepatitis C virus [1], the EC50 turned out to be 0.12 µM. Moreover, in data set [2], the half-maximal cytotoxic concentration (CC50) was > 50 µM. For the same molecule, in the data set with carboxypeptidase [3], the remaining at 10 min is 7%. For the same molecule, in the data set on carboxypeptidase [4], the half-life (usually the time needed for the level to fall by half in the phase considered) was 0.05 h.
With `CCOC(=O)[C@H](C)NP(=O)(OC[C@H]1O[C@@H](n2cnc3c(=O)[nH]c(N)nc32)[C@](C)(O)[C@@H]1O)Oc1cccc2ccccc12` (some centres undefined), the EC50 with Hepatitis C virus [1] amounted to 0.28 µM. Also, the CC50 in data set [2] is > 50 µM.
With `C[C@H](NP(=O)(OC[C@H]1O[C@@H](n2cnc3c(=O)[nH]c(N)nc32)[C@](C)(O)[C@@H]1O)Oc1cccc2ccccc12)C(=O)OC(C)(C)C` (some centres undefined), the EC50 in the data set on Hepatitis C virus [1] worked out at 27 µM. In addition, the CC50 in data set [2] is > 50 µM. Also, the half-life in the data set on carboxypeptidase [4] was 33 h. For the same molecule, in the data set with carboxypeptidase [5], the remaining at 13 h came to 24%.
Regarding `COC(=O)[C@H](C)NP(=O)(OC[C@H]1O[C@@H](n2cnc3c(=O)[nH]c(N)nc32)[C@](C)(O)[C@@H]1O)Oc1cccc2ccccc12` (some centres undefined), the EC50 in the data set with Hepatitis C virus [1] stood at 0.23 µM. Further, the CC50 in data set [2] was > 50 µM.
`C[C@H](NP(=O)(OC[C@H]1O[C@@H](n2cnc3c(N)ncnc32)[C@](C)(O)[C@@H]1O)Oc1cccc2ccccc12)C(=O)OCc1ccccc1` (some centres undefined): in the data set on Hepatitis C virus [1], the EC50 amounted to 0.27 µM. In addition, in data set [2], the CC50 was > 50 µM.
On the same counts, the results for `C[C@@]1(O)[C@H](O)[C@@H](CO)O[C@H]1n1cnc2c(N)ncnc21` are 0.25 µM and > 50 µM.
As for `C[C@@]1(O)[C@H](O)[C@@H](CO)O[C@H]1n1cnc2c(=O)[nH]c(N)nc21` [2'-B-METHYL-GUANOSINE], the EC50 came out at 10.1 µM in the data set on Hepatitis C virus [1] and 3.5 µM in the data set on Hepatitis C virus [6]. Moreover, the CC50 in data set [2] is > 50 µM. Further, the IC50 (in general, the concentration that gives 50% inhibition) in data set [7] came out at 0.13 µM.
